Patent US6867009B2 (priority 1999, dated 2005)
Several values for one entry are separate records, joined by “and”; a condition that tells them apart may be missing. Equal values may be shown once. Read-outs that look alike come from different tables or passages of the source.

Columns and labels:
rat VR1 [1] = target: T1, rat VR1 (Rattus norvegicus, UniProt O35433); experiment: biochemical; type: binding
T1 construct: expressed in transfected cells

[2] = target: T2, native rat vanilloid receptors (Rattus norvegicus, UniProt O35433); experiment: biochemical; type: binding
T2 construct: rat DRG membranes expressing native vanilloid receptors; from tissue; host or cells: dorsal root ganglia of female Sprague-Dawley rats, partially purified membrane fraction

rat VR1 [3] = target: T1, rat VR1; experiment: cell-based
[4] = target: rat dorsal root ganglion neurons; conditions: cited from earlier work
vanilloid receptor (VR) = target: T3, vanilloid receptor (VR) (Rattus norvegicus, UniProt O35433); conditions: cited from earlier work
T3 construct: With regard to DRG neurons expressing native VRs this is clearly not the case; host or cells: intact rat dorsal root ganglion neurons

VR1 = target: T4, VR1 (Rattus norvegicus, UniProt O35433); conditions: cited from earlier work
T4 construct: host or cells: Xenopus oocytes (A8); VR1-transfected HEK293 cells (A9)

rat VR1 [5] = target: T1, rat VR1; experiment: biochemical; type: binding; remark: listed apart in the source
rat VR1 [6] = target: T1, rat VR1; experiment: cell-based; remark: listed apart in the source
human capsaicin receptor = target: T5, human capsaicin receptor (Homo sapiens, UniProt Q8NER1, T469I); type: cell-based
T5 construct: expressed in transfected cells; host or cells: HEK 293T (transient, LIPOFECTAMINE; pBK-CMV phagemid clones PT35, PT44)

[7] = target: T6, short form of human capsaicin receptor (Homo sapiens, UniProt Q8NER1, M315I/P91S/T469I); type: cell-based
T6 construct: expressed in transfected cells; host or cells: HEK 293T (transient, LIPOFECTAMINE; plasmid PT36)

[8] = target: T7, rat vanilloid-receptor-like protein 1 (VRL-1) (Rattus norvegicus, UniProt Q9WUD2); conditions: cited from earlier work
T7 sequence (Q9WUD2 1-761): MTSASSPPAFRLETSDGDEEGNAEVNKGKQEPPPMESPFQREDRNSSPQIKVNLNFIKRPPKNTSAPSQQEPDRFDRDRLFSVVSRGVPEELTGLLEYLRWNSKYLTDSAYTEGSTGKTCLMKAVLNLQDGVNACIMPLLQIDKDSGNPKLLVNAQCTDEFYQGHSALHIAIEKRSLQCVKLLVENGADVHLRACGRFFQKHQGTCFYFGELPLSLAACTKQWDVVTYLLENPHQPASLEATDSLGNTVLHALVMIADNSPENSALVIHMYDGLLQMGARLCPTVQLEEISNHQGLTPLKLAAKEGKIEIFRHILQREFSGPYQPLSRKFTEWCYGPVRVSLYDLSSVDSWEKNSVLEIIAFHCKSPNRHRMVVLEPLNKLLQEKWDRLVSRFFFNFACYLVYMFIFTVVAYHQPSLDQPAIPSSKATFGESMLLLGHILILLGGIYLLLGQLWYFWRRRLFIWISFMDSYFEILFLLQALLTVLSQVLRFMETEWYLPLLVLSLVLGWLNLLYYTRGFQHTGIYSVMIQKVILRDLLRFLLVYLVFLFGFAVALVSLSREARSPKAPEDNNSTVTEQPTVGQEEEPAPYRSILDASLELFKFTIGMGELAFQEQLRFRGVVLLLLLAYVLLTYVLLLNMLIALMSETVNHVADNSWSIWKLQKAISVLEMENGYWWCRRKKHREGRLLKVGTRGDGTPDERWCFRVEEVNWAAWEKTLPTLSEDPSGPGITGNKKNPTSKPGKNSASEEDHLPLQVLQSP

HEK 293T cells = type: cell-based, human
[9] = Binding affinity (nM), radioligand itself
[10] = read-out: EC50 for inducing calcium uptake / influx
[11] = EC50 (potency) of calcium mobilization
[12] = read-out: 45Ca2+-uptake (EC50, nM), agonists
[13] = read-out: Ki for inhibition of [3H]RTX binding

T2 sequence (O35433 whole entry): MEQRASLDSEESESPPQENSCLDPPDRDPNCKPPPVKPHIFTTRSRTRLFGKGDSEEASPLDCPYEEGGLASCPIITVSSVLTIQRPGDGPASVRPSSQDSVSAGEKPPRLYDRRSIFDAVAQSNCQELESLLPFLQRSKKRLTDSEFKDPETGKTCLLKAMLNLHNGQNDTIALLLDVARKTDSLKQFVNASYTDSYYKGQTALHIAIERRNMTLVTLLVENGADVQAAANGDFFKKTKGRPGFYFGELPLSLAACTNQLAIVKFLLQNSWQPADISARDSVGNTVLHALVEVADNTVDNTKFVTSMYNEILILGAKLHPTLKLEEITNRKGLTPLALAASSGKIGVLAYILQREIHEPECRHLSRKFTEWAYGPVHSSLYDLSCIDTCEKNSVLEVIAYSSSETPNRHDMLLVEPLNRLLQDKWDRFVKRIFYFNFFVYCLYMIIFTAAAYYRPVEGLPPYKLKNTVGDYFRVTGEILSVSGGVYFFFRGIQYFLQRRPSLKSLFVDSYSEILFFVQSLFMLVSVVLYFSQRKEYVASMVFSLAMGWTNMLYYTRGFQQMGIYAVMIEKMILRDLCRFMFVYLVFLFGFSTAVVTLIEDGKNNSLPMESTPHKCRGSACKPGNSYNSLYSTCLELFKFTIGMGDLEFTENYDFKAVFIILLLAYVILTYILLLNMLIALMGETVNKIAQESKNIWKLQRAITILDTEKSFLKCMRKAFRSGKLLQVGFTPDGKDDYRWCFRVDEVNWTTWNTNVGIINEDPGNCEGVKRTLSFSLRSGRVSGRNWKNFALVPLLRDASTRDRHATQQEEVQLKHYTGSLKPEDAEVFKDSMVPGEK
T1 sequence (O35433 whole entry): as above
T3 sequence (O35433 whole entry): as above
T5 sequence (Q8NER1 whole entry T469I): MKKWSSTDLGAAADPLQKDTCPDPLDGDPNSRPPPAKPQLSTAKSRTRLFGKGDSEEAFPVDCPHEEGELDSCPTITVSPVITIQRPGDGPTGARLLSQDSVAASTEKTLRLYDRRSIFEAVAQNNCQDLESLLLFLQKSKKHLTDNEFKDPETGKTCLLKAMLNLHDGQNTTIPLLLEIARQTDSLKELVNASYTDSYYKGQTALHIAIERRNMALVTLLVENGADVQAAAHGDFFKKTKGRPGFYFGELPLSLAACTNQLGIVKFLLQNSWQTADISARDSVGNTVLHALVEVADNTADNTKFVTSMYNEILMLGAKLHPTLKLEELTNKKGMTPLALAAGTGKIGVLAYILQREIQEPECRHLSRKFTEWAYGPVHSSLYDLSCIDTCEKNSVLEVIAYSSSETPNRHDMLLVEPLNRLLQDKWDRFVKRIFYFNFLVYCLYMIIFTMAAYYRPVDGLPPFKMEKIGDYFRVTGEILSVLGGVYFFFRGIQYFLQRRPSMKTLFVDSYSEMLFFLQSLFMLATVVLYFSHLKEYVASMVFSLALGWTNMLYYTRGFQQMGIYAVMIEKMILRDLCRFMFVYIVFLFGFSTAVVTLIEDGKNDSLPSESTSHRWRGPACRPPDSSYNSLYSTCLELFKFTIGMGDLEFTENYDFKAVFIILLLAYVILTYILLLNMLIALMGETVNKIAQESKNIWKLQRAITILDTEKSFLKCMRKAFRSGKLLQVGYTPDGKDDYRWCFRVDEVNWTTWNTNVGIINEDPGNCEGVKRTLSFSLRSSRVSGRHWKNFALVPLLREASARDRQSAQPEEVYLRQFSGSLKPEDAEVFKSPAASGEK
T4 sequence (O35433 whole entry): as the sequence (O35433 whole entry) above
T6 sequence (Q8NER1 with tags, fused parts or gaps P91S/M315I/T469I): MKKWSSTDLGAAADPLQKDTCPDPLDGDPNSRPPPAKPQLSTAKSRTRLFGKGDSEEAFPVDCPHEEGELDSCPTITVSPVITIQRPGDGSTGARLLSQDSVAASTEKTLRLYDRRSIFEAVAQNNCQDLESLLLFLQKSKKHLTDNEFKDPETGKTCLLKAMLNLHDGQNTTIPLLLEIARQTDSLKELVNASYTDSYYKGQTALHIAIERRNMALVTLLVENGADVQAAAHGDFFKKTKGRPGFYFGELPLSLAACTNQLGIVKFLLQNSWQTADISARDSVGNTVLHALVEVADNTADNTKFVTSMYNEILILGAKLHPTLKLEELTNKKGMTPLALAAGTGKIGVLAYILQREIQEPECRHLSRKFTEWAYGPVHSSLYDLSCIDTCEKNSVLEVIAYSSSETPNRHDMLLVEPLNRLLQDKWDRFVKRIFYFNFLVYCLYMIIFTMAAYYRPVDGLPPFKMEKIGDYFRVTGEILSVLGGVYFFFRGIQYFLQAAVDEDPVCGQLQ

SMILES: N.N.N.N.N.N.N.N.N.N.N.N.N.N.[Cl-].[Cl-].[Cl-].[Cl-].[Cl-].[Cl-].[O-2].[O-2].[Ru+3].[Ru+3].[Ru+4] [ruthenium red]
- Binding affinity (nM), competing ligands (rat VR1 [1]): no effect
- Binding affinity (nM), competing ligands [2]: no effect
- IC50 (rat VR1 [3]; read-out: IC50 for prevention of calcium mobilization by capsaicin, n=7): 210 nM

SMILES: Oc1cc2c(cc1O)CN(C(=S)NCCc1ccc(Cl)cc1)CCC2 [capsazepine]
- Ki (rat VR1 [1]; Binding affinity (nM), competing ligands): 5100 nM
- Ki ([4]; read-out: 45Ca2+-uptake, Ki value): 271 nM
- Ki [2]: 8600 nM
- Ki (rat VR1 [3]; Ca2+-mobilization, Ki value): 140 nM and 1100 nM
- IC50 (rat VR1 [3]; IC50 for inhibition of capsaicin-evoked calcium mobilization): 2400 nM and 330 nM

SMILES: C=C(C)[C@]12C[C@@H](C)[C@@]34O[C@](Cc5ccccc5)(O[C@@H]1[C@@H]3C=C(COC(=O)Cc1ccc(O)c(OC)c1)C[C@]1(O)C(=O)C(C)=C[C@@H]41)O2 [resiniferatoxin, Resiniferatoxin]
- fold more potent for binding than for inducing calcium uptake (vanilloid receptor (VR)): approximately 25 fold
- Kd (vanilloid receptor (VR); read-out: Kd of binding): 0.04 nM
- fold more potent than capsaicin (VR1): approximately 20 fold
- Hill number (rat VR1 [1]): 1.8 and 1.9+/−0.1
- maximal receptor density (rat VR1 [1]): 470+/−30 fmol/10^6 cells
- Kd (rat VR1 [1]; [9]): 0.13 nM
- Kd (rat VR1 [1]; [3H]RTX binding affinity (Kd)): 0.103 nM
- Bmax (rat VR1 [5]): 250+/−24 fmol/10^6 cells
- Hill coefficient, FIG. 1A (rat VR1 [5]): 1.8
- Hill number (cooperativity index) (rat VR1 [5]): 2.1 and 2.1+/−0.2
- dissociation constant (1st order decay) (rat VR1 [5]): 0.12 ± 0.02 min⁻¹
- maximal receptor density, FIG. 1A (rat VR1 [5]): 222 fmol per one million cells
- non-specific binding as share of total binding (rat VR1 [5]): approximately 20%
- receptor density (rat VR1 [5]): 1.5×10^5 binding sites per cell
- specific binding attained, of its peak value (rat VR1 [5]): approximately 90%
- Kd (rat VR1 [5]; Half-maximal binding, FIG. 1A): 0.056 nM
- Kd (rat VR1 [5]; [3H]RTX binding affinity (half-maximal binding)): 0.084 nM
- EC50 [4, 10]: 1 nM
- EC50 (rat VR1 [6]): 4.1 nM
- Bmax [2]: 290+/−10 fmol/mg protein
- Hill coefficient, FIG. 2 [2]: 1.5
- Hill number (cooperativity index) [2]: 1.7 and 1.9+/−2
- maximal receptor density, FIG. 2 [2]: 302 fmol per one million cells
- Kd [2, 9]: 0.07 nM
- Kd ([2]; Half-maximal binding, FIG. 2): 0.06 nM
- Kd ([2]; [3H]RTX Kd): 0.07 nM
- time-course of calcium mobilization response (rat VR1 [3]): slowly developing but persistent calcium currents
- EC50 (rat VR1 [3]; [11]): 1.4 nM

SMILES: CC1(C)C[C@H]2C=C(C=O)[C@]3(C=O)C[C@]3(C)[C@H]2C1 [isovelleral]
- Ki (rat VR1 [5]; Ki for inhibition of [3H]RTX binding): 18000 nM and 20000 nM
- Ki [2]: 24000 nM

SMILES: COc1cc(CNC(=O)CCCC/C=C/C(C)C)ccc1O [capsaicin]
- Ave Max Response (RFU) (human capsaicin receptor): 7257 RFU and 5529 RFU
- EC50 [4, 12]: 340 nM
- EC50 [4, 10]: 270 nM
- Ave Max Response (RFU) [7]: 805 RFU
- sensitivity of VRL-1 [8]: insensitive
- Ave Max Response (RFU) (HEK 293T cells): 843 RFU
- time to peak value of calcium mobilization response (rat VR1 [3]): ≤ 1 min

SMILES: CC(C)=CCC/C(C)=C/CC/C(C)=C/Cc1c(C)c(C=O)c(O)c(O)c1O [scutigeral]
- Ki (rat VR1 [5]; [13]): 20000 nM and 18000 nM
- Ki [2, 13]: 21000 nM

SMILES: CCCCCCCC/C=C\CCCCCCCC(=O)NCc1ccc(O)c(OC)c1 [olvanil]
- EC50 [4, 12]: 170 nM
- Ki [2]: 300 nM
- EC50 (rat VR1 [3]; Ca2+-mobilization (EC50, nM), agonists): 216 nM
- EC50 (rat VR1 [3]; [11]): 22 nM
